Assay results: patent US12491209B2, “Dissolved C60 and method of producing dissolved C60” (Innovation for Success, LLC, priority 2019, dated 2025)
Converted amounts (≈) assume the structure as drawn. Where two headings read alike, the source gives them in different places.

What was measured:
IgE = conditions: animal models, applied topically; cited from earlier work
[1] = per single C60 molecule; cited from earlier work
[2] = C60 molecules diffuse out of the body; cited from earlier work
[3] = cited from earlier work
[4] = Solubility of C60 in limonene composition / d-limonene by heating method 200; format: physicochemical
Source text: As shown in the flowchart of FIG. 2 and with additional reference to FIG. 3, a method 200 for dissolving C60 304 in a liquid medium that is non-toxic and safe for human consumption includes combining C60 304 with a limonene composition 308 to form a C60 mixture 312. (Block 204). The limonene composition 308 is discussed in connection with the method 200, but the limonene composition 308 may be substituted with orange terpenes or other edible and non-toxic terpenes (or terpene containing liquids). The limonene composition 308 is used over orange terpenes, because the limonene composition 308 has a more pleasant and less bitter taste. In one embodiment, the limonene composition 308 is at least 95% d-limonene by volume, with the remaining 5% including any other liquid, such as limonene, flavoring, fragrances, and the like. In another embodiment, the limonene composition 308 is at least 75% d-limonene with the remaining 25% including any other liquid, such as limonene, flavoring, fragrances, and the like.
At block 204 of the method 200, the C60 304 is pulverized into a powdered form and combined with the liquid limonene composition 308 in a glass vessel (not shown) or any other heat-safe and non-reactive container. Additionally or alternatively, the C60 304 is not pulverized and is added to the limonene composition 308 in granular, chunky, or crystalline state. […]

c12c3c4c5c1c1c6c7c2c2c8c3c3c9c4c4c%10c5c5c1c1c6c6c%11c7c2c2c7c8c3c3c8c9c4c4c9c%10c5c5c1c1c6c6c%11c2c2c7c3c3c8c4c4c9c5c1c1c6c2c3c41 [C60, Buckminsterfullerene]
IgE reduction (IgE): reduce IgE significantly | free electrons / methyl radicals absorbed per C60 molecule [1]: up to thirty-four | residence time in the body [2]: about five | Solubility Limit ([3]; solvent 1,2-dichlorobenzene): 27000 µg/mL (≈ 37500 µM) | Solubility Limit ([3]; solvent 1-chloronaphthalene): 41000 µg/mL (≈ 56900 µM) | Solubility Limit ([3]; solvent 1-methylnaphthalene): 33000 µg/mL (≈ 45800 µM) | Solubility Limit ([3]; solvent acetone): 1 µg/mL (≈ 1.39 µM) | Solubility Limit ([3]; solvent anisole): 5600 µg/mL (≈ 7770 µM) | Solubility Limit ([3]; solvent benzene): 1700 µg/mL (≈ 2360 µM) | Solubility Limit ([3]; solvent benzonitrile): 410 µg/mL (≈ 569 µM) | Solubility Limit ([3]; solvent carbon disulfide): 7900 µg/mL (≈ 11000 µM) | Solubility Limit ([3]; solvent carbon tetrachloride): 447 µg/mL (≈ 620 µM) | Solubility Limit ([3]; solvent chloroform): 160 µg/mL (≈ 222 µM) | Solubility Limit ([3]; solvent cyclohexane): 36 µg/mL (≈ 50 µM) | Solubility Limit ([3]; solvent decalins): 4600 µg/mL (≈ 6380 µM) | Solubility Limit ([3]; solvent dichloromethane): 260 µg/mL (≈ 361 µM) | Solubility Limit ([3]; solvent ethanol): 1.4 µg/mL (≈ 1.94 µM) | Solubility Limit in mg/ml ([3]; solvent isopropanol): ND (“ND” indicates that C60 in insoluble in the identified solvent) | Solubility Limit in mg/ml ([3]; solvent methanol): ND (“ND” indicates that C60 in insoluble in the identified solvent) | Solubility Limit ([3]; solvent n-decane): 71 µg/mL (≈ 98.5 µM) | Solubility Limit ([3]; solvent n-hexane): 43 µg/mL (≈ 59.7 µM) | Solubility Limit ([3]; solvent n-pentane): 5 µg/mL (≈ 6.94 µM) | Solubility Limit ([3]; solvent octanol): 42.9 µg/mL (≈ 59.5 µM) | Solubility Limit ([3]; solvent tetrachloromethane): 320 µg/mL (≈ 444 µM) | Solubility Limit in mg/ml ([3]; solvent tetrahydrofuran): ND (“ND” indicates that C60 in insoluble in the identified solvent) | Solubility Limit ([3]; solvent tetralin): 16000 µg/mL (≈ 22200 µM) | Solubility Limit ([3]; solvent toluene): 2800 µg/mL (≈ 3890 µM) | Solubility Limit ([3]; solvent water): 1.3e-08 µg/mL (≈ 1.8e-08 µM) | Solubility Limit ([3]; solvent xylene): 5200 µg/mL (≈ 7220 µM) | dissolution of C60 into the limonene composition without heating ([4]; room temperature 70° F. (21° C.)): does not dissolve to any significant extent | Solubility Limit ([4]; solvent d-limonene, results achieved by method 200): 16670 µg/mL (≈ 23100 µM)
